Biological target: T1, human Fatty Acid Synthase (Homo sapiens, UniProt P49327)
T1 construct: made in house
Assay: Human FAS enzyme assay (decrease in NADPH fluorescence)
Assay type: biochemical
Settings: % inhibition at a concentration of 100 micromolar
Summary of the method: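 Readout: decrease in NADPH fluorescence (340 nm ex, 460 nm em) after 60 min at RT, background-subtracted against a read taken before substrate. Substrate mix contained 500 μM malonyl-CoA and 150 μM acetyl-CoA. It was added after 15 min enzyme (0.4 μg in-house human FAS)–compound–NADPH preincubation in Tris pH 7.5 buffer; % inhibition was fitted to IC50.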

T1 sequence (P49327 whole entry): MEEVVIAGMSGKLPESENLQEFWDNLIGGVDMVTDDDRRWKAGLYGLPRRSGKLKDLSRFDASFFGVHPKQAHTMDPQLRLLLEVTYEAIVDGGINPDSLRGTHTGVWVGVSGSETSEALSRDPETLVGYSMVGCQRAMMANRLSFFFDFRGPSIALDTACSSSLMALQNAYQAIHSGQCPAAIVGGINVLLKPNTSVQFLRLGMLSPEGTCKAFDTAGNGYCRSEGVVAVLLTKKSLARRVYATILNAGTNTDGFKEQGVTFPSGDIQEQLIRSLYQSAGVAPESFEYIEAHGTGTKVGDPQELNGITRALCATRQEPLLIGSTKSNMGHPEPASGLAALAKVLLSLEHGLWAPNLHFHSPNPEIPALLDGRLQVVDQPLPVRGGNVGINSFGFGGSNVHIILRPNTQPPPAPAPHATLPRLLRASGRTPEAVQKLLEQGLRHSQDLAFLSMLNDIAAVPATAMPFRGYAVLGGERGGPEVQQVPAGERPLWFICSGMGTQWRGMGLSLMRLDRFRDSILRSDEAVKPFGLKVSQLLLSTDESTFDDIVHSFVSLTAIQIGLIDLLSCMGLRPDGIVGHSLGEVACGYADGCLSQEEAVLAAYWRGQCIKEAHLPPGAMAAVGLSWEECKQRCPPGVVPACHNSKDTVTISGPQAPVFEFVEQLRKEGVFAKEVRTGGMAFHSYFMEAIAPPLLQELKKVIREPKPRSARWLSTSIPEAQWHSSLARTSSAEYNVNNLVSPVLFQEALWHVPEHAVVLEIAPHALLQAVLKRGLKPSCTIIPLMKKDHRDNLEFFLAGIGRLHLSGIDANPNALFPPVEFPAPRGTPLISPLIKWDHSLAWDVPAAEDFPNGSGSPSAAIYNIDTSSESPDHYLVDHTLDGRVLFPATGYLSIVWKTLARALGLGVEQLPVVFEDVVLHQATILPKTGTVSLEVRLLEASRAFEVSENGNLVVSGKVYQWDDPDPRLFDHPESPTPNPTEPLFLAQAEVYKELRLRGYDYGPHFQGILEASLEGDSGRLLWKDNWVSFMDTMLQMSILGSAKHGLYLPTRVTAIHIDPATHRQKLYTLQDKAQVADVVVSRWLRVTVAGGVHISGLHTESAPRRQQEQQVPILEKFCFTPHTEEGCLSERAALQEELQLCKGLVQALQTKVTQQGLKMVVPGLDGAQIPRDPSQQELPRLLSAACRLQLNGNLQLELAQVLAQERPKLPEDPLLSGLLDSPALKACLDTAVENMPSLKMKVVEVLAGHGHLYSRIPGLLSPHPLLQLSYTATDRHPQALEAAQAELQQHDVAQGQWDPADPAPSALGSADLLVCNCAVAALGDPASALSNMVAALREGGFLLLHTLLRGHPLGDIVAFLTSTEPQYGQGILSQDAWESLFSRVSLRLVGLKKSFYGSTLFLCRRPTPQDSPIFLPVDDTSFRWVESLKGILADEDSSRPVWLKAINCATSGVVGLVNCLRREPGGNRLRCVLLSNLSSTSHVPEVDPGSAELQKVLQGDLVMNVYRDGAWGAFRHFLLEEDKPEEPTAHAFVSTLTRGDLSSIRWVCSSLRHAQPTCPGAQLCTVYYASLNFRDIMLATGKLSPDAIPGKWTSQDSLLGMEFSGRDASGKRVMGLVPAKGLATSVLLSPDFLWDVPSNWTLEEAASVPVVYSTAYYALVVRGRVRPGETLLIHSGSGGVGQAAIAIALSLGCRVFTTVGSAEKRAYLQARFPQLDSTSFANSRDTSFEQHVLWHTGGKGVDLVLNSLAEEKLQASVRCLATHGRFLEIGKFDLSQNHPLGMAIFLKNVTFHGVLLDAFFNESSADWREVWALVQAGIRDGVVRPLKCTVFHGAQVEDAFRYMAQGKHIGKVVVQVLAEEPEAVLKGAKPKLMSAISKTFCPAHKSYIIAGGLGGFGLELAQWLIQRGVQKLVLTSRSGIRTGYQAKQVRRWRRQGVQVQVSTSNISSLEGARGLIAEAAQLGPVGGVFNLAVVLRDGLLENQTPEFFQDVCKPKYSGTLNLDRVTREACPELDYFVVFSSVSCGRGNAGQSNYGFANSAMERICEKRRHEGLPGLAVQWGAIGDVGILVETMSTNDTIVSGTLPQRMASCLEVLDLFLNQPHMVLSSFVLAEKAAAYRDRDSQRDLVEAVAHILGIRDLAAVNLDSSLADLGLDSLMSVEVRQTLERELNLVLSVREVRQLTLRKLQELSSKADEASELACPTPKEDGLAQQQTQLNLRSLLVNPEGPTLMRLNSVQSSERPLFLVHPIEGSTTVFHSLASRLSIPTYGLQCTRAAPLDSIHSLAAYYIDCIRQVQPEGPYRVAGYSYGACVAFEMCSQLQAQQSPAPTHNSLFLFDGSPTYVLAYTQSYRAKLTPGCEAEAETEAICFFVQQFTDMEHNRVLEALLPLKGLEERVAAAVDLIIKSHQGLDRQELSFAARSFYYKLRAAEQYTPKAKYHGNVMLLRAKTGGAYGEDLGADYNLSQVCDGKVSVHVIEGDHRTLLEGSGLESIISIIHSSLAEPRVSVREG

Structure (SMILES)	inhibition at 100 µM [%]
CNCCCS(=O)(=O)Nc1cc(C(=O)N2CCC(c3ccc(C#N)cc3)CC2)ccc1C [Example 75, N-[5-[4-(4-cyanophenyl)piperidine-1-carbonyl]-2-methyl-phenyl]-3-methylamino-propane-1-sulfonamide]	93
COC(=O)c1cccc(S(=O)(=O)Nc2cc(C(=O)N3CCC(c4ccc(C#N)cc4)CC3)ccc2C)c1 [Example 76, Methyl 3-[[5-[4-(4-cyanophenyl)piperidine-1-carbonyl]-2-methyl-phenyl]sulfamoyl]benzoate]	97
Cc1ccc(C(=O)N2CCC(c3ccc(C#N)cc3)CC2)cc1NS(=O)(=O)CCNS(C)(=O)=O [Example 77, N-[5-[4-(4-cyanophenyl)piperidine-1-carbonyl]-2-methyl-phenyl]-2-methanesulfonamido-ethanesulfonamide]	98
CC(=O)NCCS(=O)(=O)Nc1cc(C(=O)N2CCC(c3ccc(C#N)cc3)CC2)ccc1C [Example 78, N-[2-[[5-[4-(4-cyanophenyl)piperidine-1-carbonyl]-2-methyl-phenyl]sulfamoyl]ethyl]acetamide]	95
Cc1ccc(C(=O)N2CCC(c3ccc(C#N)cc3)CC2)cc1NS(=O)(=O)c1cccc(C(=O)O)c1 [Example 79, 3-[[5-[4-(4-cyanophenyl)piperidine-1-carbonyl]-2-methyl-phenyl]sulfamoyl]benzoic acid]	95
Cc1ccc(C(=O)N2CCC(c3ccc(C#N)cc3)CC2)cc1NS(=O)(=O)CCNS(=O)(=O)C(C)C [Example 80, N-[2-[[5-[4-(4-cyanophenyl)piperidine-1-carbonyl]-2-methyl-phenyl]sulfamoyl]ethyl]propane-2-sulfonamide]	90
Cc1ccc(C(=O)N2CCC(c3ccc(C#N)cc3)CC2)cc1NS(=O)(=O)c1cccc(C(N)=O)c1 [Example 81, 3-[[5-[4-(4-cyanophenyl)piperidine-1-carbonyl]-2-methyl-phenyl]sulfamoyl]benzamide]	90
Cc1ccc(C(=O)N2CCC(c3ccc(C#N)cc3)CC2)cc1NS(=O)(=O)c1cccc(C(=O)N(C)C)c1 [Example 82, 3-[[5-[4-(4-cyanophenyl)piperidine-1-carbonyl]-2-methyl-phenyl]sulfamoyl]-N,N-dimethyl-benzamide]	93
CNC(=O)c1cccc(S(=O)(=O)Nc2cc(C(=O)N3CCC(c4ccc(C#N)cc4)CC3)ccc2C)c1 [Example 83, 3-[[5-[4-(4-cyanophenyl)piperidine-1-carbonyl]-2-methyl-phenyl]sulfamoyl]-N-methyl-benzamide]	98
Cc1ccc(C(=O)N2CCC(c3ccc(C#N)cc3)CC2)cc1NS(=O)(=O)c1cccc(C(=O)NCCO)c1 [Example 84, 3-[[5-[4-(4-cyanophenyl)piperidine-1-carbonyl]-2-methyl-phenyl]sulfamoyl]-N-(2-hydroxyethyl)benzamide]	92
Cc1ccc(C(=O)N2CCC(c3ccc(C#N)cc3)CC2)cc1NS(=O)(=O)c1cccc(C(=O)NC(C)C)c1 [Example 85, 3-[[5-[4-(4-cyanophenyl)piperidine-1-carbonyl]-2-methyl-phenyl]sulfamoyl]-N-propan-2-yl-benzamide]	95
Cc1ccc(C(=O)N2CCC(c3ccc(C#N)cc3)CC2)cc1NS(=O)(=O)CCNC(=O)c1ccccc1 [Example 86, N-[2-[[5-[4-(4-cyanophenyl)piperidine-1-carbonyl]-2-methyl-phenyl]sulfamoyl]ethyl]benzamide]	100
COCC(=O)NCCS(=O)(=O)Nc1cc(C(=O)N2CCC(c3ccc(C#N)cc3)CC2)ccc1C [Example 87, N-[2-[[5-[4-(4-cyanophenyl)piperidine-1-carbonyl]-2-methyl-phenyl]sulfamoyl]ethyl]-2-methoxy-acetamide]	82
Cc1ccc(C(=O)N2CCC(c3ccc(C#N)cc3)CC2)cc1NS(=O)(=O)CC(=O)N1CCOCC1 [Example 88, N-[5-[4-(4-cyanophenyl)piperidine-1-carbonyl]-2-methyl-phenyl]-2-morpholin-4-yl-2-oxo-ethanesulfonamide]	89
COc1ccc(C(=O)N2CCC(c3ccc(C#N)cc3)CC2)cc1NS(=O)(=O)Cc1ccccc1 [Example 89, N-[5-[4-(4-cyanophenyl)piperidine-1-carbonyl]-2-methoxy-phenyl]-1-phenyl-methanesulfonamide]	78
Cc1ccc(C(=O)N2CCC(c3ccc(C#N)cc3)CC2)cc1NS(=O)(=O)c1ccc(Cl)nc1 [Example 90, 6-chloro-N-[5-[4-(4-cyanophenyl)piperidine-1-carbonyl]-2-methyl-phenyl]pyridine-3-sulfonamide]	79
Cc1ccc(C(=O)N2CCC(c3ccc(C#N)cc3)CC2)cc1NS(=O)(=O)CC(=O)N(C)C [Example 91, 2-[[5-[4-(4-cyanophenyl)piperidine-1-carbonyl]-2-methyl-phenyl]sulfamoyl]-N,N-dimethyl-acetamide]	80
Cc1ccc(C(=O)N2CCC(c3ccc(C#N)cc3)CC2)cc1NS(=O)(=O)CC(=O)NCCO [Example 92, 2-[[5-[4-(4-cyanophenyl)piperidine-1-carbonyl]-2-methyl-phenyl]sulfamoyl]-N-(2-hydroxyethyl)acetamide]	80
Cc1ccc(C(=O)N2CCC(c3ccc(C#N)cc3)CC2)cc1NS(=O)(=O)c1ccc(N2CCOCC2)nc1 [Example 93, N-[5-[4-(4-cyanophenyl)piperidine-1-carbonyl]-2-methyl-phenyl]-6-morpholin-4-yl-pyridine-3-sulfonamide]	79

The next lines start with the values.

inhibition at 100 µM [%]	Structure (SMILES)
86	Cc1ccc(C(=O)N2CCC(c3ccc(C#N)cc3)CC2)cc1NS(=O)(=O)c1cn(C)cn1 [Example 94, N-[5-[4-(4-cyanophenyl)piperidine-1-carbonyl]-2-methyl-phenyl]-1-methyl-imidazole-4-sulfonamide]
73	Cc1ccc(C(=O)N2CCC(c3ccc(C#N)cc3)CC2)cc1NS(=O)(=O)c1cnoc1C [Example 95, N-[5-[4-(4-cyanophenyl)piperidine-1-carbonyl]-2-methyl-phenyl]-5-methyl-1,2-oxazole-4-sulfonamide]
98	Cc1ccc(C(=O)N2CCC(c3ccc(C#N)cc3)CC2)cc1NS(=O)(=O)c1ccc(N(C)C)nc1 [Example 96, N-[5-[4-(4-cyanophenyl)piperidine-1-carbonyl]-2-methyl-phenyl]-6-dimethylamino-pyridine-3-sulfonamide]
88	Cc1ccc(C(=O)N2CCC(c3ccc(C#N)cc3)CC2)cc1NS(=O)(=O)c1cccc(C(=O)N2CCOCC2)c1 [Example 97, N-[5-[4-(4-cyanophenyl)piperidine-1-carbonyl]-2-methyl-phenyl]-3-(morpholine-4-carbonyl)benzenesulfonamide]
110	C=CS(=O)(=O)Nc1cc(C(=O)N2CCC(c3ccc(C#N)cc3)CC2)ccc1C [Example 98, N-[5-[4-(4-cyanophenyl)piperidine-1-carbonyl]-2-methyl-phenyl]ethenesulfonamide]
92	Cc1ccc(C(=O)N2CCC(c3ccc(C#N)cc3)CC2)cc1NS(=O)(=O)c1ccc(NC(C)C)nc1 [Example 99, N-[5-[4-(4-cyanophenyl)piperidine-1-carbonyl]-2-methyl-phenyl]-6-(propan-2-ylamino)pyridine-3-sulfonamide]
90	Cc1ccc(C(=O)N2CCC(c3ccc(C#N)cc3)CC2)cc1NS(=O)(=O)c1c(C)nn(C)c1Cl [Example 100, 5-chloro-N-[5-[4-(4-cyanophenyl)piperidine-1-carbonyl]-2-methyl-phenyl]-1,3-dimethyl-pyrazole-4-sulfonamide]
98	Cc1ccc(C(=O)N2CCC(c3ccc(C#N)cc3)CC2)cc1NS(=O)(=O)c1c(Cl)nc2sccn12 [Example 101, 7-chloro-N-[5-[4-(4-cyanophenyl)piperidine-1-carbonyl]-2-methyl-phenyl]-4-thia-1,6-diazabicyclo[3.3.0]octa-2,5,7-triene-8-sulfonamide]
81	Cc1ccc(C(=O)N2CCC(c3ccc(C#N)cc3)CC2)cc1NS(=O)(=O)c1ccc(=O)[nH]c1 [Example 102, N-[5-[4-(4-cyanophenyl)piperidine-1-carbonyl]-2-methyl-phenyl]-6-oxo-1H-pyridine-3-sulfonamide]
98	COCCNc1ccc(S(=O)(=O)Nc2cc(C(=O)N3CCC(c4ccc(C#N)cc4)CC3)ccc2C)cn1 [Example 103, N-[5-[4-(4-cyanophenyl)piperidine-1-carbonyl]-2-methyl-phenyl]-6-(2-methoxyethylamino)pyridine-3-sulfonamide]
76	C=CS(=O)(=O)Nc1cc(C(=O)N2CCC(c3ccc(C(N)=O)cc3)CC2)ccc1C [Example 104, 4-[1-[3-(ethenylsulfonylamino)-4-methyl-benzoyl]-4-piperidyl]benzamide]
89	COCCS(=O)(=O)Nc1cc(C(=O)N2CCC(c3ccc(C#N)cc3)CC2)ccc1C [Example 105, N-[5-[4-(4-cyanophenyl)piperidine-1-carbonyl]-2-methyl-phenyl]-2-methoxy-ethanesulfonamide]
95	Cc1nc(C)c(S(=O)(=O)Nc2cc(C(=O)N3CCC(c4ccc(C#N)cc4)CC3)ccc2C)s1 [Example 106, N-[5-[4-(4-cyanophenyl)piperidine-1-carbonyl]-2-methyl-phenyl]-2,4-dimethyl-1,3-thiazole-5-sulfonamide]
92	Cc1ccc(C(=O)N2CCC(c3ccc(C#N)cc3)CC2)cc1NS(=O)(=O)c1cccnc1 [Example 107, N-[5-[4-(4-cyanophenyl)piperidine-1-carbonyl]-2-methyl-phenyl]pyridine-3-sulfonamide]
78	COC(=O)c1ccccc1S(=O)(=O)Nc1cc(C(=O)N2CCC(c3ccc(C#N)cc3)CC2)ccc1C [Example 108, methyl 2-[[5-[4-(4-cyanophenyl)piperidine-1-carbonyl]-2-methyl-phenyl]sulfamoyl]benzoate]
